Assay results as given in ChEMBL document CHEMBL5523761 (J Med Chem, 2024).
Values belong to the compound of their own block, whether it stands above or below them.

Experiments:
[1] = target: T1, D(1A) dopamine receptor (Homo sapiens, UniProt P21728)
Description: Binding affinity to D1 receptor (unknown origin) assessed as inhibition constant

[2] = target: T2, D(2) dopamine receptor (Homo sapiens, UniProt P14416)
Description: Binding affinity to D2S receptor (unknown origin) assessed as inhibition constant

[3] = target: T3, Amine oxidase [flavin-containing] A (Homo sapiens, UniProt P21397)
T3 sequence (P21397 whole entry): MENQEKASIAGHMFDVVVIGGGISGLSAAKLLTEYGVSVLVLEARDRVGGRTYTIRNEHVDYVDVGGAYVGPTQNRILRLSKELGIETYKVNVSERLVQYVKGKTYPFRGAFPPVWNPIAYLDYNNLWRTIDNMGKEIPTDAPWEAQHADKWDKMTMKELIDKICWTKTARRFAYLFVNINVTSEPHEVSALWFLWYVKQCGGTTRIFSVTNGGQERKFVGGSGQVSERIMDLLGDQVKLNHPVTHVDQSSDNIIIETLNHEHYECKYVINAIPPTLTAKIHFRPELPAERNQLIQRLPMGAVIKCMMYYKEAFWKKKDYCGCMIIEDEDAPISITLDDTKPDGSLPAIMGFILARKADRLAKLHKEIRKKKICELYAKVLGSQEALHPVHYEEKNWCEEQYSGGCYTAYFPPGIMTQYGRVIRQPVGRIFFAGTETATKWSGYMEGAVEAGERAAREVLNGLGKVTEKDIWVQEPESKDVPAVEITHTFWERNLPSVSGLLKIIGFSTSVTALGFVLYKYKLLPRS
Description: Inhibition of MAO-A (unknown origin) measured by MAO-GloTM method

[4] = target: T4, Amine oxidase [flavin-containing] B (Homo sapiens, UniProt P27338)
T4 sequence (P27338 whole entry): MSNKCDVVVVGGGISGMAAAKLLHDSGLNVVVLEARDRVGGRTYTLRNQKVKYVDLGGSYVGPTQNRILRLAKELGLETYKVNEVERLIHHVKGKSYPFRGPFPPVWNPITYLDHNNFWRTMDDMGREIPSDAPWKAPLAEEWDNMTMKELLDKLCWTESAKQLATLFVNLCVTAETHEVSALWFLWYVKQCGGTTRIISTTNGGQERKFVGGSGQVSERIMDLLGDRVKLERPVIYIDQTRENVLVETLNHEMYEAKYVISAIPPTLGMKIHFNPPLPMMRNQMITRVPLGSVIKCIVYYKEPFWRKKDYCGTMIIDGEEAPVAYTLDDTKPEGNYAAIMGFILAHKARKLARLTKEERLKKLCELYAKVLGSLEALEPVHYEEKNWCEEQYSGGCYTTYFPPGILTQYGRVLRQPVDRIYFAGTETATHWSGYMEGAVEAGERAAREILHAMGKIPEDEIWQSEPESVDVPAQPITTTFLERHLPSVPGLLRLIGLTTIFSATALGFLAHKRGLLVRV
Description: Inhibition of MAO-B (unknown origin) measured by MAO-GloTM method

[5] = target: T5, D(3) dopamine receptor (Homo sapiens, UniProt P35462)
Description: Agonist activity at D3 receptor (unknown origin)

[6] = target: T6, D(4) dopamine receptor (Homo sapiens, UniProt P21917)
T6 sequence (P21917 whole entry): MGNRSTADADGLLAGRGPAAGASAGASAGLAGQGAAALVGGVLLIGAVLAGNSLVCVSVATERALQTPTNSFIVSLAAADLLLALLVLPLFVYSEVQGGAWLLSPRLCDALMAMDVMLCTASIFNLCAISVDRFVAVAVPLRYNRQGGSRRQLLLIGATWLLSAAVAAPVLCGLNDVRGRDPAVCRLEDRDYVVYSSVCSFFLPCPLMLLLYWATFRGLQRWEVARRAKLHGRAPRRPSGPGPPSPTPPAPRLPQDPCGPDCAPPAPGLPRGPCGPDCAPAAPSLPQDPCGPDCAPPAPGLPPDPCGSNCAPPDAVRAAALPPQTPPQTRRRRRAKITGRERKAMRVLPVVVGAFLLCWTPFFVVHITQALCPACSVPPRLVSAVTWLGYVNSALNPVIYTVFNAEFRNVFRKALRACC
Description: Agonist activity at D4 receptor (unknown origin)

[7] = target: T5, D(3) dopamine receptor; remark: listed apart in the source
Description: Binding affinity to D3 receptor (unknown origin) assessed as inhibition constant

[8] = target: T2, D(2) dopamine receptor; remark: listed apart in the source
Description: Binding affinity to D2 receptor (unknown origin) assessed as inhibition constant

[9] = target: Acetylcholinesterase (Homo sapiens, UniProt P22303)
Description: Inhibition of AChE (unknown origin) by Ellman's colorimetric method

[10] = target: Cholinesterase (Homo sapiens, UniProt P06276)
Description: Inhibition of BChE (unknown origin) by Ellman's colorimetric method

[11] = target: Beta-secretase 1 (Homo sapiens, UniProt P56817)
Description: Inhibition of BACE1 (unknown origin) by FRET assay

[12] = target: T1, D(1A) dopamine receptor; remark: listed apart in the source
Description: Inhibition of D1 receptor (unknown origin)

[13] = target: T2, D(2) dopamine receptor; remark: listed apart in the source
Description: Inhibition of D2 receptor (unknown origin)

[14] = target: T2, D(2) dopamine receptor; remark: listed apart in the source
[15] = target: T2, D(2) dopamine receptor; remark: listed apart in the source
[16] = target: T2, D(2) dopamine receptor; remark: listed apart in the source
Description: Antagonist activity at D2 receptor (unknown origin)

[17] = target: T7, Alpha-1A adrenergic receptor (Homo sapiens, UniProt P35348)
T7 sequence (P35348 whole entry): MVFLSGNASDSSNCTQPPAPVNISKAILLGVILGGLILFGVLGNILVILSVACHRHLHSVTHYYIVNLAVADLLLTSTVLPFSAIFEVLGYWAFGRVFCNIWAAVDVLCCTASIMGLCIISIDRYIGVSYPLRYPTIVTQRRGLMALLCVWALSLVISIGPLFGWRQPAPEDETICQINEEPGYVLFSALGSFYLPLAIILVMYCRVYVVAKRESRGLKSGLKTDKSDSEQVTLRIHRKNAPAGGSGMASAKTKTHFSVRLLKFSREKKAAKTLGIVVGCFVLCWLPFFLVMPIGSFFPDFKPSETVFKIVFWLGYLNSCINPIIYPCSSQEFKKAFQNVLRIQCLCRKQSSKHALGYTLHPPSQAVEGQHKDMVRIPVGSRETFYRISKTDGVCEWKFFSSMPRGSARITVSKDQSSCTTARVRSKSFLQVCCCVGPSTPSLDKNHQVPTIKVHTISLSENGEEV
Description: Binding affinity to alpha1A adrenergic receptor (unknown origin) assessed as inhibition constant

[18] = target: T2, D(2) dopamine receptor; remark: listed apart in the source
Description: Binding affinity to D2L receptor (unknown origin) assessed as inhibition constant

[19] = target: T6, D(4) dopamine receptor; remark: listed apart in the source
Description: Binding affinity to D4 receptor (unknown origin) assessed as inhibition constant

[20] = target: Vasopressin V1a receptor (Homo sapiens, UniProt P37288)
Description: Inhibition of Vasopressin V1A receptor (unknown origin)

[21] = target: T5, D(3) dopamine receptor; remark: listed apart in the source
Description: Inhibition of D3 receptor (unknown origin)

[22] = target: T6, D(4) dopamine receptor; remark: listed apart in the source
Description: Inhibition of D4 receptor (unknown origin)

[23] = target: 5-hydroxytryptamine receptor 2A (Homo sapiens, UniProt P28223)
Description: Binding affinity to 5HT2A (unknown origin) assessed as inhibition constant

[24] = target: 5-hydroxytryptamine receptor 1B (Homo sapiens, UniProt P28222)
Description: Binding affinity to 5HT1B receptor (unknown origin) assessed as inhibition constant

[25] = target: 5-hydroxytryptamine receptor 7 (Homo sapiens, UniProt P34969)
Description: Binding affinity to 5HT7 receptor (unknown origin) assessed as inhibition constant

[26] = target: T8, Alpha-2C adrenergic receptor (Homo sapiens, UniProt P18825)
T8 sequence (P18825 whole entry): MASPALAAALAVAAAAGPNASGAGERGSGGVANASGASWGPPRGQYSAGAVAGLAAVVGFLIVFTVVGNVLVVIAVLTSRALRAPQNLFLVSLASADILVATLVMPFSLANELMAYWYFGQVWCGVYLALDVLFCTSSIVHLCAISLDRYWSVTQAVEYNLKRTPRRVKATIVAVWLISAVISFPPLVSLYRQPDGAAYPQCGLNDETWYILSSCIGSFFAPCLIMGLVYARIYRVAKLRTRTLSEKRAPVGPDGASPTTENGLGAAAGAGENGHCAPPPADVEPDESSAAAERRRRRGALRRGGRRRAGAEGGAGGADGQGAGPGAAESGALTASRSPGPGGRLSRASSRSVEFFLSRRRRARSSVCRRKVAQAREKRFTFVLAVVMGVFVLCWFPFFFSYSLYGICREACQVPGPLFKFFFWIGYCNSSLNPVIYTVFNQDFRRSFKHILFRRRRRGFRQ
Description: Binding affinity to alpha2C adrenergic receptor (unknown origin) assessed as inhibition constant

[27] = target: 5-hydroxytryptamine receptor 1D (Homo sapiens, UniProt P28221)
Description: Binding affinity to 5HT1D receptor (unknown origin) assessed as inhibition constant

[28] = target: T9, 5-hydroxytryptamine receptor 2C (Homo sapiens, UniProt P28335)
T9 sequence (P28335 whole entry): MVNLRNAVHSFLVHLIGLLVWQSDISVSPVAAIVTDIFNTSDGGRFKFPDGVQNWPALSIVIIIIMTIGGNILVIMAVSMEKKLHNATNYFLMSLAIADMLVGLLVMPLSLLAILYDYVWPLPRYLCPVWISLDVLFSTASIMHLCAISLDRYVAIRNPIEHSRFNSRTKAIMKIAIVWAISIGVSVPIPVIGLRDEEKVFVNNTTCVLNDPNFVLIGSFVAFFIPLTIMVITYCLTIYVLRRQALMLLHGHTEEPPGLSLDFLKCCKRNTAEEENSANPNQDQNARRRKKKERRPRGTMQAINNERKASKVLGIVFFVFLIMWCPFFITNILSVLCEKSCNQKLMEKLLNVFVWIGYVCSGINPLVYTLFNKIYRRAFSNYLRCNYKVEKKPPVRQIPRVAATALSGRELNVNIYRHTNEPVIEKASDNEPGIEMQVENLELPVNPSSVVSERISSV
Description: Binding affinity to 5HT2C receptor (unknown origin) assessed as inhibition constant

T2 sequence (P14416 whole entry): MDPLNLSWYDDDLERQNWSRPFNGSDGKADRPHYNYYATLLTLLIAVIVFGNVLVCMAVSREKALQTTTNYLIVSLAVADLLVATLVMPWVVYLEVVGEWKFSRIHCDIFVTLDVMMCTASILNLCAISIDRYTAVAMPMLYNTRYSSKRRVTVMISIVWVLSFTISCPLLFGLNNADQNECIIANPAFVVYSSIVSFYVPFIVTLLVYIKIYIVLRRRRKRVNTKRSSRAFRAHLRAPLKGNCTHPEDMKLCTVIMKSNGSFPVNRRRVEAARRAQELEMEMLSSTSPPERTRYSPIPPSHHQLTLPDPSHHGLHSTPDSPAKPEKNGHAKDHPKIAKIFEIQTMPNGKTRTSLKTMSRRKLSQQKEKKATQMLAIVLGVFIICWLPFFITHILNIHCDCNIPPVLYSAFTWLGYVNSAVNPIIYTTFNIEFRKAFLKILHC
T5 sequence (P35462 whole entry): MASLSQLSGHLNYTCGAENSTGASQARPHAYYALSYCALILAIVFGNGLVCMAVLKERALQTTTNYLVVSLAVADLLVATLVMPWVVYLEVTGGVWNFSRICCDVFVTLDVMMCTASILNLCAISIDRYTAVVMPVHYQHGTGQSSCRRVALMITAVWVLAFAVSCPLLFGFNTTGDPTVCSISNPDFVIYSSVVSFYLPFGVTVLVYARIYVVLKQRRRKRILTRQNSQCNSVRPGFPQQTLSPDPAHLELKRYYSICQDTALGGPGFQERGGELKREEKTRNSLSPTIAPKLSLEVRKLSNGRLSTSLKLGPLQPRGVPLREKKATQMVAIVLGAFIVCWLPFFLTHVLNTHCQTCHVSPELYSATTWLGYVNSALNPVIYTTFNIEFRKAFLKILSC
T1 sequence (P21728 whole entry): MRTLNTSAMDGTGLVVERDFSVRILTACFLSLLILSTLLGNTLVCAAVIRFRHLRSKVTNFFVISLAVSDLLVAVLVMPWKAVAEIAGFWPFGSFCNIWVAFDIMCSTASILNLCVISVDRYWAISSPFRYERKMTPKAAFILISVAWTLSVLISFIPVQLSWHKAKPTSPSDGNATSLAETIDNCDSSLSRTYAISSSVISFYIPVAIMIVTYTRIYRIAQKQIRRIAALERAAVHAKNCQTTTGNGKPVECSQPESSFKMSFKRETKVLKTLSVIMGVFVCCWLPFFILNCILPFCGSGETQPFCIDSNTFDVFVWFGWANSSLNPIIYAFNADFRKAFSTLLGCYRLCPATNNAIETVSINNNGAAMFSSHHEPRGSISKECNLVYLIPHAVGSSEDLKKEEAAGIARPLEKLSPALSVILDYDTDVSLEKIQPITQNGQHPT
Chain of Vasopressin V1a receptor (P37288 whole entry): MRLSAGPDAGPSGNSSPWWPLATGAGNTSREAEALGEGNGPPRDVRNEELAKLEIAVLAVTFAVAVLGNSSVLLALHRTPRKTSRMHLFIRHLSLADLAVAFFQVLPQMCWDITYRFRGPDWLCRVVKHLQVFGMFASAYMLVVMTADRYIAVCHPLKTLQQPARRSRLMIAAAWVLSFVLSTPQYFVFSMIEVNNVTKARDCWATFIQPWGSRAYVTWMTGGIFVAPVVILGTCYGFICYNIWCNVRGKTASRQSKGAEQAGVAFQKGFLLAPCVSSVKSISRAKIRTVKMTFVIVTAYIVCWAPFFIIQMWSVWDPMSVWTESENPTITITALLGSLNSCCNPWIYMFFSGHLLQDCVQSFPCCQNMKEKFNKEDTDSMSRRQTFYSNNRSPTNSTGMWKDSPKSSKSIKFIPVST
Chain of 5-hydroxytryptamine receptor 1D (P28221 whole entry): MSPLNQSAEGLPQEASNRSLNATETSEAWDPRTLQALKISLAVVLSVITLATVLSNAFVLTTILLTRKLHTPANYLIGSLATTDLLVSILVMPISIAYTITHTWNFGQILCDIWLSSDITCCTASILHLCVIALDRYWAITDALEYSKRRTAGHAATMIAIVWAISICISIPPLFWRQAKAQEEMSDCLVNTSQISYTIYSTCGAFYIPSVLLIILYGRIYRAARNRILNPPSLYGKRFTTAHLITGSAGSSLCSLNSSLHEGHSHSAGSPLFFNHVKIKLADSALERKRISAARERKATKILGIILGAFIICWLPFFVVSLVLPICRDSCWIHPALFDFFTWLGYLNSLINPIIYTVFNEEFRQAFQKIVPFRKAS
Chain of 5-hydroxytryptamine receptor 7 (P34969 whole entry): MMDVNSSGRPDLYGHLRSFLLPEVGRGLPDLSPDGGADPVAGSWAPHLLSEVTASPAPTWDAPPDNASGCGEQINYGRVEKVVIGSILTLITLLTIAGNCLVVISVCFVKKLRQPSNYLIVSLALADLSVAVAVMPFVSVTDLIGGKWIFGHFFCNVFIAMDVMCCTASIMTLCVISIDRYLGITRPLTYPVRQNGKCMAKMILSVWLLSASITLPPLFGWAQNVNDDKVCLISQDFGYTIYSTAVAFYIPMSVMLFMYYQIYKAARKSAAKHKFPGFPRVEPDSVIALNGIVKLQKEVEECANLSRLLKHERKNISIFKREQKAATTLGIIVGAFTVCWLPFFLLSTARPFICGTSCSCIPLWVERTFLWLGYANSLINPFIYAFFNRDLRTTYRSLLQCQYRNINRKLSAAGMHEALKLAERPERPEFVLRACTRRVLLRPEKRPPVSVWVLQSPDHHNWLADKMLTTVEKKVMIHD
Chain of Beta-secretase 1 (P56817 whole entry): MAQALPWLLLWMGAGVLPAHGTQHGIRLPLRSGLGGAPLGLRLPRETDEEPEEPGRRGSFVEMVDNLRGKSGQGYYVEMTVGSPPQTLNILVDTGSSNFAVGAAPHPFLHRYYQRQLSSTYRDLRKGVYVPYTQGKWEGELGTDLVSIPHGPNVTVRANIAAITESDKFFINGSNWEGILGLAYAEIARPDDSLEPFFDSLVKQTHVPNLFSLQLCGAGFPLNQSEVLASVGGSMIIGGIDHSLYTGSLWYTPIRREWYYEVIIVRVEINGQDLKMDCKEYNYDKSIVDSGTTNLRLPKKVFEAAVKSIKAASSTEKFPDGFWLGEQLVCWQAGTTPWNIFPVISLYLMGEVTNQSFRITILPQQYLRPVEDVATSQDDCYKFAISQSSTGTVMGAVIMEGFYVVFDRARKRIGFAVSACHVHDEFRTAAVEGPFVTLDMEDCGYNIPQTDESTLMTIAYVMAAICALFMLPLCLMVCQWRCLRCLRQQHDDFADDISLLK
Chain of Acetylcholinesterase (P22303 whole entry): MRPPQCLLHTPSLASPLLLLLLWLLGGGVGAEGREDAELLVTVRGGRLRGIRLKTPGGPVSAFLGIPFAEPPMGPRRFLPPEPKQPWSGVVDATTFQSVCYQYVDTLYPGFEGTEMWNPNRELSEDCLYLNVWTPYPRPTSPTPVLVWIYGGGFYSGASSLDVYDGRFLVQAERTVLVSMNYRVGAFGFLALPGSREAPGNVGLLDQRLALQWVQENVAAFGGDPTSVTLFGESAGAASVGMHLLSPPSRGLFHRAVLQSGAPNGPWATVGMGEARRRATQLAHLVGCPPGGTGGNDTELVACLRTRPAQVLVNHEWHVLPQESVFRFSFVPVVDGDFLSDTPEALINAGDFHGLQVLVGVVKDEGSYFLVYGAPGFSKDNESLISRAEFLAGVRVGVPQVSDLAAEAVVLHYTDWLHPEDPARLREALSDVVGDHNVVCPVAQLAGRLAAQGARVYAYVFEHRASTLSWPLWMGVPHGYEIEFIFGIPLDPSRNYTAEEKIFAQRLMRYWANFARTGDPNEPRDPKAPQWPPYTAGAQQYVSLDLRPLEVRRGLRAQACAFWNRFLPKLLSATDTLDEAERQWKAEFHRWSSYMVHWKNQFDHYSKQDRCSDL
Chain of 5-hydroxytryptamine receptor 2A (P28223 whole entry): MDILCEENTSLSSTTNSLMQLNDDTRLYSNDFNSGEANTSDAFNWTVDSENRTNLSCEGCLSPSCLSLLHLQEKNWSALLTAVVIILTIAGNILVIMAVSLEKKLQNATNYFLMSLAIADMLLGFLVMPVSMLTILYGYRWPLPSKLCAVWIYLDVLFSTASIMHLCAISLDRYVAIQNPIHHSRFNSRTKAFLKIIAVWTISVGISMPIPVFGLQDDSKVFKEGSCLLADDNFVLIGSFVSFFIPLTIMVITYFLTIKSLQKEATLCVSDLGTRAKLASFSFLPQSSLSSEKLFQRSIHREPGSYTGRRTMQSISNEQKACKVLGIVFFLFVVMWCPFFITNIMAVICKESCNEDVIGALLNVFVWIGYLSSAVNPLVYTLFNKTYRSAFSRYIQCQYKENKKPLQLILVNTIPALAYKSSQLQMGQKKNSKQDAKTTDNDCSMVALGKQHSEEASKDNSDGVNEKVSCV
Chain of 5-hydroxytryptamine receptor 1B (P28222 whole entry): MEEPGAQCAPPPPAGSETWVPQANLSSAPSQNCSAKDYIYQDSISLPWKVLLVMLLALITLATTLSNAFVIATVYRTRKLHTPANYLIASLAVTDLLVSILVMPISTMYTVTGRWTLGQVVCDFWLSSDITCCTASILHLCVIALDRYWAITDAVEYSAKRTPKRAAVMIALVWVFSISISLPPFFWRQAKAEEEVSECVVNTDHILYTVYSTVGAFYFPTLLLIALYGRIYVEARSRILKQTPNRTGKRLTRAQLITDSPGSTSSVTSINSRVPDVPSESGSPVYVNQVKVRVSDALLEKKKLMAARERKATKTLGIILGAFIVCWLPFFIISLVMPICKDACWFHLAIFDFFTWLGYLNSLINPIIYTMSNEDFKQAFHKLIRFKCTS

SMILES: CCCN1CCc2cc(OCCCF)cc3c2[C@H]1Cc1cccc(O)c1-3
Ki [1]: 0.54 nM

SMILES: CCN1CCc2cc(OCCF)cc3c2[C@H]1Cc1cccc(O)c1-3
Ki [1]: 0.83 nM

SMILES: Oc1c(O)c(Br)c(COCc2c(Br)c(O)c(O)c(Br)c2Br)c(Br)c1Br
IC50 [3]: 89300 nM
IC50 [4]: 103000 nM
EC50 [5]: 59000 nM
EC50 [6]: 59000 nM

SMILES: CCCN1CCc2cccc3c2[C@H]1Cc1cccc(OC(C)=O)c1-3
Ki [8]: 72.3 nM
Ki [1]: > 10000 nM

SMILES: CCCN1CCc2cccc3c2[C@H]1Cc1cccc(O)c1-3
Ki [1]: 699 nM

SMILES: CCCCC(=O)Oc1cccc2c1-c1cccc3c1[C@@H](C2)N(CCC)CC3
Ki [8]: 340 nM
Ki [1]: > 20000 nM

SMILES: C=C(C)[C@H](CC=C(C)C)Cc1c(O)cc(OC)c2c1O[C@H](c1ccc(O)cc1O)CC2=O
IC50 [9]: 42100 nM
IC50 [10]: 5290 nM
IC50 [11]: 24500 nM

SMILES: COc1ccc(C[C@H]2c3cc(O)c(OC)cc3CCN2C)cc1O [(S)-RETICULINE]
IC50 [12]: 1800 nM
IC50 [13]: 470 nM

SMILES: COc1cc2c(cc1O)C[C@H]1c3c(cc(O)c(OC)c3-2)CCN1C [BOLDINE]
IC50 [16]: 520 nM

SMILES: CC(C)C[C@H]1C(=O)N2CCC[C@H]2[C@]2(O)O[C@](NC(=O)[C@@H]3C=C4c5cccc6[nH]c(Br)c(c56)C[C@H]4N(C)C3)(C(C)C)C(=O)N12 [BROMOCRIPTINE]
Ki [17]: 18 nM
Ki [1]: 3420 nM

SMILES: OCCN1CCN(CCCN2c3ccccc3Sc3ccc(C(F)(F)F)cc32)CC1 [FLUPHENAZINE]
Ki [19]: 130 nM

SMILES: COc1cc2c(cc1OC)-c1c(OC)c(OC)cc3c1[C@H](C2)N(C)CC3 [GLAUCINE]
IC50 [16]: 3020 nM

SMILES: O=c1cc(-c2ccc(O)c(O)c2)oc2cc(O)cc(O)c12 [LUTEOLIN]
IC50 [3]: 8570 nM
IC50 [22]: 39600 nM
IC50 [20]: 19500 nM
IC50 [4]: > 100000 nM

Results, then the compound that gave them:

Ki [2]: 514 nM
SMILES: COc1cc2c(cc1O)CN1CCc3cc(OC)c(O)cc3[C@@H]1C2

Ki [7]: 93 nM
Ki [1]: 3800 nM
SMILES: Oc1cc2c(cc1O)C1Cc3cccc(O)c3CN1CC2 (stereo unspecified)

IC50 [3]: 205000 nM
IC50 [4]: 151000 nM
EC50 [6]: 57200 nM
SMILES: OCc1c(Br)c(O)c(O)c(Br)c1Br

IC50 [12]: 80 nM
IC50 [13]: 320 nM
SMILES: COc1cc2c(cc1OC)Oc1c(O)ccc3c1[C@@H](C2)N(C)CC3

Ki [7]: 606 nM
Ki [2]: 708 nM
Ki [1]: 8.75 nM
SMILES: COC1=CC2C[C@@H]3c4cc(O)c(OC)cc4CCN3CC2C=C1O (stereo partly specified)

IC50 [12]: 100 nM
IC50 [13]: 220 nM
SMILES: COc1cc2c(cc1O)C[C@@H]1c3c(ccc(O)c3O2)CCN1C

IC50 [13]: 2500 nM
SMILES: C=C1CCC[C@]2(C)Cc3occ(C)c3C[C@@H]12 [ATRACTYLON]

IC50 [14]: 17100 nM
IC50 [15]: 38600 nM
SMILES: COc1ccc2cc3[n+](cc2c1OC)CCc1cc2c(cc1-3)OCO2 [BERBERINE CHLORIDE]

Ki [8]: 0.36 nM
Ki [18]: 0.36 nM
Ki [1]: 3800 nM
SMILES: C=CCN1C[C@H](C(=O)N(CCCN(C)C)C(=O)NCC)C[C@@H]2c3cccc4[nH]cc(c34)C[C@H]21 [CABERGOLINE]

IC50 [12]: 60 nM
IC50 [13]: 30 nM
SMILES: COc1cc2c(cc1O)Oc1c(O)ccc3c1[C@H](C2)N(C)CC3 [CELTISINE]

IC50 [20]: 78600 nM
IC50 [21]: 62300 nM
SMILES: O=C(/C=C/c1ccc(O)cc1)c1ccc(O)cc1O [ISOLIQUIRITIGENIN]

Ki [7]: 7.5 nM
Ki [23]: 0.83 nM
Ki [24]: 111 nM
Ki [25]: 6.8 nM
Ki [26]: 2.7 nM
Ki [8]: 1.6 nM
Ki [17]: 11 nM
Ki [1]: 554 nM
Ki [27]: 7.3 nM
Ki [28]: 19 nM
SMILES: Cc1nc2n(c(=O)c1CCN1CCC(c3noc4cc(F)ccc34)CC1)CCCC2O (stereo unspecified) [PALIPERIDONE]

Ki [17]: 888 nM
SMILES: CCCN1C[C@H](CSC)C[C@@H]2c3cccc4[nH]cc(c34)C[C@H]21 [PERGOLIDE]

Ki [7]: 23.4 nM
Ki [19]: 1450 nM
Ki [8]: 11.6 nM
Ki [1]: 5.1 nM
SMILES: COc1cc2c(cc1O)[C@@H]1Cc3ccc(O)c(OC)c3CN1CC2 [STEPHOLIDINE]

Ki [8]: 388 nM
Ki [1]: 124 nM
SMILES: COc1cc2c(cc1OC)[C@@H]1Cc3ccc(OC)c(OC)c3CN1CC2 [TETRAHYDROPALMATINE]
